From US20080015237A1 (ASTRAZENECA AB, priority 2006, published 2008)

Target: human Kv1.5 channel (Homo sapiens, UniProt P22460)
Assay: Test A: Rb+ efflux assay
Format: cell-based
Settings: CHO cells stably transfected with cDNA for human Kv1.5
Experimental: This assay identifies compounds that block the human Kv1.5 channel potassium channel heterologously expressed in Chinese Hamster Ovary (CHO) cells by means of Rb+ ion efflux using Flame Atomic Absorption Spectroscopy. For experimental studies, CHO cells stably transfected with cDNA for human Kv1.5 were grown as confluent layers in Falcon, 384-well tissue culture-treated black-walled clear-bottomed plates and the plates were incubated overnight at 37° C. in a cell culture incubator.
After incubating overnight the cell plates were washed and a buffer containing Rb+ ions were added to the cell plates. The plates were then incubated for another 3-4 hours in a CO2-incubator (37° C.). Following this incubation period plates were washed, compounds were added and subsequently a buffer containing elevated K+ concentrations were added in order to activate the Kv1.5 channel. Following a short incubation time, aliquots of the supernatants were transferred to supernatant plates for subsequent determination of the Rb+ content using Atomic Absorption Spectrometry (ICR8000 instrument, Aurora Biomed Inc.).

human Kv1.5 channel, sequence (P22460 whole entry): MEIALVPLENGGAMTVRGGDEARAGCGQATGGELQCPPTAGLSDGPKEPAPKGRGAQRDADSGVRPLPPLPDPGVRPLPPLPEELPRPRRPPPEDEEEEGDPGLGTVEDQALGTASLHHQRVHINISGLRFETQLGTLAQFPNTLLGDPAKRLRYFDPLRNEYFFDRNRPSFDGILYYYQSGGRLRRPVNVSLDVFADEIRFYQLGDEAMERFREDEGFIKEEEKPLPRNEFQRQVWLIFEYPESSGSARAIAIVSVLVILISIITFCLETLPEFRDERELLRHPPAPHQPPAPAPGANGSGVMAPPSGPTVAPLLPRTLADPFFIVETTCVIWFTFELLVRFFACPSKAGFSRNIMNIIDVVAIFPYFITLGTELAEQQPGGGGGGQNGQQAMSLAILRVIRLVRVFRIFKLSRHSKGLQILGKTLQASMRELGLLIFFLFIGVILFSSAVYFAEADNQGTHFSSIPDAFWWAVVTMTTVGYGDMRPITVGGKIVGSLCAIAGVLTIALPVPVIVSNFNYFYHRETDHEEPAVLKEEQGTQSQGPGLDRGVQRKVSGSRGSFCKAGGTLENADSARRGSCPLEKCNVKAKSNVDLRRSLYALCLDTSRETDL

IC50 | Compound
1.4 µM | CC(C)(CO)CN1C(=O)c2ccc(F)cc2C1C(=O)NCc1cccc(OC(F)F)c1 (centres unmarked) [N-[3-(difluoromethoxy)benzyl]-6-fluoro-2-(3-hydroxy-2,2-dimethylpropyl)-3-oxoisoindoline-1-carboxamide]
2 µM | C[C@H](c1ccccc1)N1C(=O)c2ccc(Cl)cc2C1C(=O)NCCCC(F)(F)F (stereo partly drawn) [6-chloro-3-oxo-2-[(1R)-1-phenylethyl]-N-(4,4,4-trifluorobutyl)isoindoline-1-carboxamide]
2.4 µM | CC(C)(C)NC(=O)C1c2cc(Br)ccc2C(=O)N1Cc1ccccc1-c1ccccc1 (centres unmarked) [2-(biphenyl-2-ylmethyl)-6-bromo-N-(tert-butyl)-3-oxoisoindoline-1-carboxamide]
0.42 µM | O=C(NCc1ccccc1)C1c2cc(Cl)ccc2C(=O)N1Cc1ccccc1-c1ccccc1 (centres unmarked) [N-benzyl-2-(biphenyl-2-ylmethyl)-6-chloro-3-oxoisoindoline-1-carboxamide]
2.1 µM | CC(C)(CO)CN1C(=O)c2ccc(Cl)cc2C1C(=O)NCc1cccc(Cl)c1 (centres unmarked) [6-chloro-N-(3-chlorobenzyl)-2-(3-hydroxy-2,2-dimethylpropyl)-3-oxoisoindoline-1-carboxamide]
0.34 µM | CCCCN(Cc1ccccc1)C(=O)C1c2ccccc2C(=O)N1CCc1ccc(Cl)cc1 (centres unmarked) [N-benzyl-N-butyl-2-[2-(4-chlorophenyl)ethyl]-3-oxoisoindoline-1-carboxamide]
0.53 µM | CCCCNC(=O)C1c2ccccc2C(=O)N1CC(C)(C)c1ccc(Cl)cc1 (centres unmarked) [N-butyl-2-[2-(4-chlorophenyl)-2-methyl-propyl]-3-oxo-1H-isoindole-1-carboxamide]
1.9 µM | CC(C)(C)NC(=O)C1c2ccccc2C(=O)N1Cc1ccccc1C(F)(F)F (centres unmarked) [N-(tert-butyl)-3-oxo-2-[2-(trifluoromethyl)benzyl]isoindoline-1-carboxamide]
2.1 µM | C[C@H](c1ccccc1)N1C(=O)c2cc(Br)ccc2C1C(=O)NCc1ccccc1 (stereo partly drawn) [N-benzyl-5-bromo-3-oxo-2-[(1R)-1-phenylethyl]isoindoline-1-carboxamide]
1.4 µM | O=C(NCc1ccccc1)C1c2cc(F)ccc2C(=O)N1Cc1ccccc1C(F)(F)F (centres unmarked) [N-benzyl-6-fluoro-3-oxo-2-[2-(trifluoromethyl)benzyl]isoindoline-1-carboxamide]
2 µM | N#Cc1cccc(CNC(=O)C2c3ccccc3C(=O)N2Cc2cccc(Cl)c2)c1 (centres unmarked) [2-(3-chlorobenzyl)-N-(3-cyanobenzyl)-3-oxoisoindoline-1-carboxamide]
1.2 µM | CC(CN1C(=O)c2ccccc2C1C(=O)NCc1ccc(C#N)cc1)c1ccc(Cl)cc1 (centres unmarked) [2-[2-(4-chlorophenyl)propyl]-N-(4-cyanobenzyl)-3-oxoisoindoline-1-carboxamide]
2.7 µM | CNC(=O)C1c2cc(Br)ccc2C(=O)N1Cc1ccccc1C1CCCC1 (centres unmarked) [6-bromo-2-(2-cyclopentylbenzyl)-N-methyl-3-oxoisoindoline-1-carboxamide]
0.42 µM | CC(CN1C(=O)c2ccc(Cl)cc2C1C(=O)NCc1ccc(C(F)(F)F)nc1)c1ccc(Cl)cc1 (centres unmarked) [6-chloro-2-[2-(4-chlorophenyl)propyl]-3-oxo-N-{[6-(trifluoromethyl)pyridin-3-yl]methyl}isoindoline-1-carboxamide]
0.62 µM | CC(CN1C(=O)c2ccccc2C1C(=O)NCc1ccc2c(c1)OCO2)c1ccc(Cl)cc1 (centres unmarked) [N-(1,3-benzodioxol-5-ylmethyl)-2-[2-(4-chlorophenyl)propyl]-3-oxoisoindoline-1-carboxamide]
1.7 µM | Cc1c(OCF)ccc2c1C(=O)N(Cc1ccccc1-c1ccccc1)C2C(=O)NC(C)(C)C (centres unmarked) [2-(biphenyl-2-ylmethyl)-N-(tert-butyl)-5-(fluoromethoxy)-4-methyl-3-oxoisoindoline-1-carboxamide]
0.61 µM | COc1ccc2c(c1OC)C(=O)N(CC(C)c1ccc(Cl)cc1)C2C(=O)NCc1ccccc1 (centres unmarked) [N-benzyl-2-[2-(4-chlorophenyl)propyl]-4,5-dimethoxy-3-oxoisoindoline-1-carboxamide]
1.5 µM | O=C(NCCCC(F)(F)F)C1c2ccccc2C(=O)N1Cc1ccccc1-c1ccccc1 (centres unmarked) [2-(biphenyl-2-ylmethyl)-3-oxo-N-(4,4,4-trifluorobutyl)isoindoline-1-carboxamide]
1.3 µM | CCCCNC(=O)C1c2c(F)cccc2C(=O)N1CC(C)c1ccc(Cl)cc1 (centres unmarked)
2 µM | Cc1c(O)ccc2c1C(=O)N(Cc1ccccc1Oc1ccc(C(F)(F)F)cc1)C2C(=O)NC(C)(C)C (centres unmarked) [N-(tert-butyl)-5-hydroxy-4-methyl-3-oxo-2-{2-[4-(trifluoromethyl)phenoxy]benzyl}isoindoline-1-carboxamide]
1.1 µM | Cc1c(O)ccc2c1C(=O)N(Cc1ccccc1-c1ccccc1)C2C(=O)NC(C)(C)C (single isomer, unassigned) [(R or S) 2-(biphenyl-2-ylmethyl)-N-(tert-butyl)-5-hydroxy-4-methyl-3-oxoisoindoline-1-carboxamide]

IC50 | Compound
1.8 µM | CC(C)(C)CCN1C(=O)c2ccccc2C1C(=O)NCc1cccc(OC(F)F)c1 (centres unmarked) [N-[3-(difluoromethoxy)benzyl]-2-(3,3-dimethylbutyl)-3-oxoisoindoline-1-carboxamide]
0.72 µM | Cc1c(O)ccc2c1C(=O)N(Cc1ccccc1-c1ccc(Cl)c(Cl)c1)C2C(=O)NC(C)(C)C (centres unmarked) [N-(tert-butyl)-2-[(3′,4′-dichlorobiphenyl-2-yl)methyl]-5-hydroxy-4-methyl-3-oxoisoindoline-1-carboxamide]
2.5 µM | O=C(NCc1ccc(F)cc1)C1c2ccccc2C(=O)N1C(c1ccccc1)c1ccccc1 (centres unmarked) [2-(diphenylmethyl)-N-(4-fluorobenzyl)-3-oxoisoindoline-1-carboxamide]
2.4 µM | CC(c1ccccc1)N1C(=O)c2ccccc2C1C(=O)NCc1cccc(OC(F)F)c1 (centres unmarked) [N-[3-(difluoromethoxy)benzyl]-3-oxo-2-(1-phenylethyl)isoindoline-1-carboxamide]
2.2 µM | COc1ccc2c(c1C)C(=O)N(Cc1ccccc1-c1ccccc1)C2C(=O)NC(C)(C)C (centres unmarked) [2-(biphenyl-2-ylmethyl)-N-(tert-butyl)-5-methoxy-4-methyl-3-oxoisoindoline-1-carboxamide]
1.5 µM | O=C(NCc1ccc(C(F)(F)F)nc1)C1c2cc(Cl)ccc2C(=O)N1Cc1ccccc1-c1ccccc1 (centres unmarked) [2-(biphenyl-2-ylmethyl)-6-chloro-3-oxo-N-{[6-(trifluoromethyl)pyridin-3-yl]methyl}isoindoline-1-carboxamide]
0.15 µM | CC(CN1C(=O)c2ccc(Cl)cc2C1C(=O)NCc1ccccc1)c1ccc(Cl)cc1 (centres unmarked) [N-benzyl-6-chloro-2-[2-(4-chlorophenyl)propyl]-3-oxoisoindoline-1-carboxamide]
2.5 µM | CC(C)(C)CN1C(=O)c2ccccc2C1C(=O)NCc1ccc(Cl)c(Cl)c1 (centres unmarked) [N-(3,4-dichlorobenzyl)-2-(2,2-dimethylpropyl)-3-oxoisoindoline-1-carboxamide]
0.62 µM | CC(CN1C(=O)c2ccccc2C1C(=O)NCCc1c[nH]c2ccccc12)c1ccc(Cl)cc1 (centres unmarked) [2-[2-(4-chlorophenyl)propyl]-N-[2-(1H-indol-3-yl)ethyl]-3-oxoisoindoline-1-carboxamide]
1.7 µM | CC(C)(c1ccccc1)N1C(=O)c2ccccc2C1C(=O)NCc1ccccc1 (centres unmarked) [N-benzyl-2-(1-methyl-1-phenylethyl)-3-oxoisoindoline-1-carboxamide]
0.74 µM | COc1cc2c(cc1OC)C(C(=O)NCc1ccccc1)N(CC(C)c1ccc(Cl)cc1)C2=O (centres unmarked) [N-benzyl-2-[2-(4-chlorophenyl)propyl]-5,6-dimethoxy-3-oxoisoindoline-1-carboxamide]
0.61 µM | O=C(NCCCC(F)(F)F)C1c2cc(Cl)ccc2C(=O)N1Cc1ccccc1-c1ccccc1 (centres unmarked) [2-(biphenyl-2-ylmethyl)-6-chloro-3-oxo-N-(4,4,4-trifluorobutyl)isoindoline-1-carboxamide]
0.89 µM | CN(Cc1ccccc1)C(=O)C1c2ccccc2C(=O)N1CCc1ccc(Cl)cc1 (centres unmarked) [N-benzyl-2-[2-(4-chlorophenyl)ethyl]-N-methyl-3-oxoisoindoline-1-carboxamide]
1.3 µM | CC(C)(C)CN1C(=O)c2ccccc2C1C(=O)NCc1cccc(OC(F)F)c1 (centres unmarked) [N-[3-(difluoromethoxy)benzyl]-2-(2,2-dimethylpropyl)-3-oxoisoindoline-1-carboxamide]
1.3 µM | CCCNC(=O)C1c2ccccc2C(=O)N1CC(C)c1ccc(Cl)cc1 (centres unmarked) [2-[2-(4-chlorophenyl)propyl]-3-oxo-N-propylisoindoline-1-carboxamide]
2.2 µM | C[C@@H](c1ccccc1)N1C(=O)c2ccc(Cl)cc2C1C(=O)NCc1ccccc1 (stereo partly drawn) [N-benzyl-6-chloro-3-oxo-2-[(1S)-1-phenylethyl]isoindoline-1-carboxamide]
0.58 µM | CC(CN1C(=O)c2ccccc2C1C(=O)NCc1ccc2c(c1)OC(F)(F)O2)c1ccc(Cl)cc1 (centres unmarked) [2-[2-(4-chlorophenyl)propyl]-N-[(2,2-difluoro-1,3-benzodioxol-5-yl)methyl]-3-oxoisoindoline-1-carboxamide]
0.73 µM | CCCCNC(=O)C1c2ccccc2C(=O)N1CC(C)c1ccc(Cl)cc1 (centres unmarked) [N-butyl-2-[2-(4-chlorophenyl)propyl]-3-oxoisoindoline-1-carboxamide]
1 µM | CCNC(=O)C1c2cc(Cl)ccc2C(=O)N1Cc1ccccc1-c1ccccc1 (centres unmarked) [2-(biphenyl-2-ylmethyl)-6-chloro-N-ethyl-3-oxoisoindoline-1-carboxamide]
0.94 µM | O=C(NCc1ccc(C(F)(F)F)nc1)C1c2ccccc2C(=O)N1Cc1ccccc1-c1ccccc1 (centres unmarked) [2-(biphenyl-2-ylmethyl)-3-oxo-N-{[6-(trifluoromethyl)pyridin-3-yl]methyl}isoindoline-1-carboxamide]
